Experimental data: US12090195B2 (priority 2018, dated 2024)

Assays:
mice = settings: mouse, in vivo, ip; cited from earlier work
[1] = system: six microorganisms (bacteria, yeast, fungus); assay type: cell-based

Compound	LD50 (mice)	antimicrobial activity against yeast and fungi [1]
COC(=O)c1ccc(O)cc1 [methyl paraben]	1000 mg/kg	
OCCOc1ccccc1 [Combination 2-PE, 2-Phenoxyethanol]		weaker antimicrobial activity than Thiomersal
